The results in this text go back to patent US20220363686A1 (AiCuris GmbH & Co. KG, priority 2018, published 2022).

Read-outs that look alike come from different tables or passages of the source.

In one series the test system is HBV. As to the kind of experiment: Determination of HBV DNA from the supernatants of HepAD38 cells (anti-HBV activity). Format: cell-based, hepatitis B virus. As to conditions: HBV DNA in HepAD38 supernatant, day 6, qPCR, read-out: Cell Activity. The gist of the method: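 HepAD38 cells (60,000/well) seeded in tetracycline-free medium to induce HBV, treated with half-log serial compound dilutions for 6 days at 37 °C. HBV DNA purified from filtered supernatant and quantified by real-time PCR against HBV plasmid standards; EC50 from relative copy numbers by non-linear regression.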

Another series concerns HepAD38 cells. Nature of the series: Cell viability assay (AlamarBlue). As to conditions: 0.3 μg/ml tetracycline, six days incubation, AlamarBlue.
For series [1], the target named is HBV core protein (C-terminal truncated core protein containing 149 amino acids of the N-terminal assembly domain) (UniProt P03146). Nature of the series: Biochemical capsid assembly assay (fluorescence quenching). More on the design: rows headed: Assembly Activity; other: BODIPY-FL labelled core protein, assembly started with NaCl, read after 6 min. As to conditions: read-out: Assembly Activity; BODIPY-FL labelled core protein, assembly started with NaCl, read after 6 min. A digest of the protocol:
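N-terminal assembly domain (residues 1–149) plus C-terminal Cys150, E. coli-expressed, BODIPY-FL-maleimide labelled, used at 1.0–2.0 μM in 50 mM HEPES pH 7.5 with 0.5% DMSO. Assembly started with NaCl ([…]); fluorescence quenching (ex 477/em 525 nm) read after 6 min. 8-point compound series; EC50 by non-linear regression.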

Series [2] is described as follows: Cell viability assay (AlamarBlue). The following applies: human, HepAD38 cells.
[3] abbreviates: Hepatitis B virus, HePAD38, 144 h.

HBV core protein (C-terminal truncated core protein containing 149 amino acids of the N-terminal assembly domain), sequence (P03146 whole entry, the tested form may be a part): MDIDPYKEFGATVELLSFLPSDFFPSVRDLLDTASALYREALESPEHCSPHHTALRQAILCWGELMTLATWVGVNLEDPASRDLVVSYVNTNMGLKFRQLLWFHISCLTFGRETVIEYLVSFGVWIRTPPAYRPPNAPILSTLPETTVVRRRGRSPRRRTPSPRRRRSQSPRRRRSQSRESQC

Consider `COCC1(N(C)C(=O)c2cnn3c2CN(C(=O)c2cc4ccccc4[nH]2)C(C)C3)CC1` (single isomer, unassigned) [Example 70, 5-(1H-indole-2-carbonyl)-N-[1-(methoxymethyl)cyclopropyl]-N,6-dimethyl-4H,5H,6H,7H-pyrazolo[1,5-a]pyrazine-3-carboxamide], for which, in the series on HBV, the EC50 was < 1 µM. Besides, in the series with HepAD38 cells, the cytotoxic concentration (CC50) is > 10 µM. The IC50 in series [1] was < 5 µM.

For `CC1Cn2ncc(C(=O)N(C)C3CC3)c2CN1C(=O)c1cc2ccccc2[nH]1` (single isomer, unassigned) [Example 71, N-cyclopropyl-5-(1H-indole-2-carbonyl)-N,6-dimethyl-4H,5H,6H,7H-pyrazolo[1,5-a]pyrazine-3-carboxamide], the EC50 with HBV is < 1 µM. The CC50 in the series with HepAD38 cells was > 10 µM. Besides, the IC50 in series [1] is < 5 µM.

Consider `CC1Cn2ncc(C(=O)NC3(COC(F)F)CC3)c2CN1C(=O)c1cc2ccccc2[nH]1` (single isomer, unassigned) [Example 132, N-{1-[(difluoromethoxy)methyl]cyclopropyl}-5-(1H-indole-2-carbonyl)-6-methyl-4H,5H,6H,7H-pyrazolo[1,5-a]pyrazine-3-carboxamide], for which the EC50 with HBV is < 1 µM. Besides, the CC50 in the series with HepAD38 cells was > 10 µM. The IC50 in series [1] is < 5 µM.

For the molecule `CC1Cn2ncc(C(=O)N[C@H](C)C(F)(F)F)c2CN1C(=O)c1cc2c(Cl)cccc2[nH]1` (stereo partly drawn) [Example 145, 5-(4-chloro-1H-indole-2-carbonyl)-6-methyl-N-[(2R)-1,1,1-trifluoropropan-2-yl]-4H,5H,6H,7H-pyrazolo[1,5-a]pyrazine-3-carboxamide], in the series with HBV (setting [3]), the EC50 was < 1 µM. Moreover, in series [2], the half-maximal cytotoxic concentration (CC50) at 6 days is > 10 µM. In addition, in series [1], the IC50 was < 5 µM.

With `Cc1cc(F)cc2[nH]c(C(=O)N3Cc4c(C(=O)N[C@H](C)C(F)(F)F)cnn4CC3C)cc12` (stereo partly drawn) [Example 146, 5-(6-fluoro-4-methyl-1H-indole-2-carbonyl)-6-methyl-N-[(2R)-1,1,1-trifluoropropan-2-yl]-4H,5H,6H,7H-pyrazolo[1,5-a]pyrazine-3-carboxamide], the EC50 with HBV (setting [3]) is < 1 µM. Besides, the CC50 at 6 days in series [2] is > 10 µM. Also, the IC50 in series [1] was < 5 µM.

For the molecule `CC1Cn2ncc(C(=O)N[C@H](C)C(F)(F)F)c2CN1C(=O)c1cc2cc(F)c(Cl)cc2[nH]1` (stereo partly drawn) [Example 147, 5-(6-chloro-5-fluoro-1H-indole-2-carbonyl)-6-methyl-N-[(2R)-1,1,1-trifluoropropan-2-yl]-4H,5H,6H,7H-pyrazolo[1,5-a]pyrazine-3-carboxamide], in the series with HBV (setting [3]), the EC50 is < 1 µM. Moreover, in series [2], the CC50 at 6 days is > 10 µM. In series [1], the IC50 is < 5 µM.

On to `O=C(NC1(CCOC(F)F)COC1)c1cnn2c1CN(C(=O)c1cc3ccccc3[nH]1)CC2` [Example 148, N-{3-[2-(difluoromethoxy)ethyl]oxetan-3-yl}-5-(1H-indole-2-carbonyl)-4H,5H,6H,7H-pyrazolo[1,5-a]pyrazine-3-carboxamide], for which the EC50 with HBV (setting [3]) is < 1 µM. Further, the CC50 at 6 days in series [2] is > 10 µM. Besides, in series [1], the IC50 is < 5 µM.
